Measurements from patent publication US10874743B2, “IRAK degraders and uses thereof” (Kymera Therapeutics, Inc., priority 2017, dated 2020).

Biological target: T1, IRAK4 (Homo sapiens, UniProt Q9NWZ3)
T1 sequence (Q9NWZ3 1-460): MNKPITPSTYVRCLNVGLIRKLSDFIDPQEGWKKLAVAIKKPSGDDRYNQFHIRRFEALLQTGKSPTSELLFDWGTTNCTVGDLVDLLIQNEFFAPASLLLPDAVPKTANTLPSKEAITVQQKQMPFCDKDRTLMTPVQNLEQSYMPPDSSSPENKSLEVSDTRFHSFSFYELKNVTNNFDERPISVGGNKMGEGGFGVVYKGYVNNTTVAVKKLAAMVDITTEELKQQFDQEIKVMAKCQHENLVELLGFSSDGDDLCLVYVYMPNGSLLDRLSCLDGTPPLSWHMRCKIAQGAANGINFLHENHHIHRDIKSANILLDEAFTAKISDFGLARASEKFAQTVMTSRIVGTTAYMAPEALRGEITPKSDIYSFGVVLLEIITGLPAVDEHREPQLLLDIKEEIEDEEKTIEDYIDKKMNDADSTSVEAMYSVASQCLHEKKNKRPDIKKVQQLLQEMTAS
Test: OCI-LY-10 degradation assay (western blot, % IRAK4 degraded after 4 hours)
Format: cell-based
Design: endogenous in cells; host or cells: OCI-LY10
Conditions: OCI-LY10 cells; for OCI-LY10 % IRAK4 Degradation: IRAK4 degraded after 4 hours, western blot; for OCI-LY10 % IRAK4 Degradation (0.01 uM) / OCI-LY10 % IRAK4 Degradation (0.1 uM) / OCI-LY10 % IRAK4 Degradation (1 uM): 4 hours; for OCI-LY10 % IRAK4 Degradation (0.01 uM): 0.01 uM compound; for OCI-LY10 % IRAK4 Degradation (0.1 uM): 0.1 uM compound; for OCI-LY10 % IRAK4 Degradation (1 uM): 1 uM compound
Method: Compounds were reconstituted in DMSO to make stock solutions at concentration of 60 mM. THP-1 and OCI-LY10 cells were maintained in RPMI-1640 medium containing 10% FBS, 0.5 μM 2-ME or 20% FBS, 55 μM 2-ME, and 1% L-Glutamine respectively.
Cells were seeded into 6-well plates with 5e6 cells per well. 200 μL of diluted compounds were added to cells to the final concentration of 0.003-10 μM. After 4 or 24 hour-incubation at 37° C., cells were collected into 2 mL Eppendorf tubes and centrifuged at 1,000 rpm for 5 min. The cell pellets were washed with 1×DPBS once and resuspended in 60 μL lysis buffer. The cells were lysed on ice for 10 min, then centrifuged at 14,000 rpm for 10 min at 4° C. and the supernatants were collected for western blots. For THP-1 cells, the lysis buffer contained 40 mM pH 7.4 HEPES, 140 mM NaCl, 2.5 mM EDTA, 1% NP-40, 0.1% SDS, and protease inhibitor cocktail (Roche, Cat. No. 05892791001). For OCI-LY10 cells, RIPAbuffer (Thermo Fisher, 89900) with Halt Protease and Phosphatase Inhibitor Cocktail (Thermo Fisher, 78446) was applied.
The protein concentration of cell lysates was quantified with Pierce™ BCA Protein Assay Kit (Pierce, 23227). Albumin standards at different concentrations were prepared, involving 2,000 ug/mL, 1,500 ug/mL, 1,000 ug/mL, 750 ug/mL, 500 ug/mL, 250 ug/mL, 125 ug/mL, and 25 ug/mL. BCA working reagents were prepared by mixing BCA reagent A with reagent B in 50:1 ratio. 200 μL of the BCA working reagents were added to 25 μL of BCA standard or cell lysates in microplate, and mixed thoroughly on a plate shaker for 30 seconds. After incubation at 37° C. for 30 min, the absorbance of samples at 562 nm were measured with EnVision Plate Reader.
Protein lysates were prepared in NuPAGE™ LDS sample buffer and NuPAGE™ sample reducing agent, and incubated at 95° C. for 5 min. For western blots, 20-25 μg of total proteins were resolved in 4-12% Bis-Tris gels (Introgen, WG1403A) or 10% Bis-Tris Midi gels (Invitrogen, WG1202BOX) running with 1×MOPS SDS running buffer (Invitrogen, NP0001) or 1×MES SDS running buffer (Invitrogen, NP0002). The proteins were transferred to low fluorescence PVDF membranes using the Trans-Blot Turbo Transfer System. Membranes were then blocked in Odyssey blocking buffer at RT for 1 h followed by primary incubation at 4° C. overnight. The primary antibodies were IRAK1 rabbit monoclonal antibody (CST, #4504S, 1:500), IRAK3 rabbit polyclonal antibody (CST, #4369, 1:500), IRAK4 rabbit polyclonal antibody (CST, #4363S, 1:1,000), MyD88 rabbit monoclonal antibody (Abcam, Ab133739, 1:2,000), j3-actin mouse monoclonal antibody (Sigma, A5441, 10,000), and Gapdh mouse monoclonal antibody (Millipore, MAB374, 1:5,000). Membranes were washed three times with 1×TBST, and then incubated with IR Dye 800 CW Goat anti-rabbit (Licor, #926-32211) and IR Dye 700 CW Goat anti-mouse (Licor, #926-68070) secondary antibodies in 1:10,000 dilution at RT for 1 h. The western blot images were obtained using Odyssey Imaging System.
OCI-LY-10 results at 4 hours. The letter codes indicate the percentage of IRAK4 degraded after 4 hours: A (>50% degradation), B (>20-50% degradation) and C (<20% degradation)
OCI-LY-10 results at 4 hours. The letter codes for % IRAK4 degradation indicate the percentage of IRAK4 degraded after 4 hours across three different concentrations: A (>50% degradation), B (>20-50% degradation) and C (<20% degradation).

Row | OCI-LY10 % IRAK4 Degradation | OCI-LY10 % IRAK4 Degradation (0.01 uM) | OCI-LY10 % IRAK4 Degradation (0.1 uM) | OCI-LY10 % IRAK4 Degradation (1 uM) | Compound
1 | – | C (<20% degradation) | C (<20% degradation) | C (<20% degradation) | NC(=O)c1nn(Cc2cn(CCOCCOCCNc3cccc4c3C(=O)N(C3CCC(=O)NC3=O)C4=O)nn2)cc1NC(=O)c1coc(-c2ccnc(NCC3CC3)c2)n1 (stereo not shown) [I-304, N-[3-carbamoyl-1-[[1-[2-[2-[2-[[2-(2,6-dioxo-3-piperidyl)-1,3-dioxo-isoindolin-4-yl]amino]ethoxy]ethoxy]ethyl]triazol-4-yl]methyl]pyrazol-4-yl]-2-[2-(cyclopropylmethylamino)-4-pyridyl]oxazole-4-carboxamide]
2 | – | B (>20-50% degradation) | A (>50% degradation) | A (>50% degradation) | CN(CCOCCOCCCc1cccc2c1C(=O)N(C1CCC(=O)NC1=O)C2=O)C(=O)c1ccc(-n2cc(NC(=O)c3coc(-c4ccncc4)n3)c(C(N)=O)n2)cc1 (stereo not shown) [I-226]
3 | – | C (<20% degradation) | C (<20% degradation) | B (>20-50% degradation) | CN(CCOCCCc1ccc2c(c1)C(=O)N(C1CCC(=O)NC1=O)C2=O)Cc1ccc(-n2cc(NC(=O)c3coc(-c4ccncc4)n3)c(C(F)F)n2)cc1 (stereo not shown) [I-377]
4 | – | C (<20% degradation) | B (>20-50% degradation) | A (>50% degradation) | Cn1c(=O)n(C2CCC(=O)NC2=O)c2ccc(CCCOCCOCCNCc3ccc(-n4cc(NC(=O)c5coc(-c6ccnc(NCC(F)(F)F)c6)n5)c(C(N)=O)n4)cc3)cc21 (stereo not shown) [I-327]
5 | – | C (<20% degradation) | B (>20-50% degradation) | B (>20-50% degradation) | CN(CCCc1ccc2c(c1)C(=O)N(C1CCC(=O)NC1=O)C2=O)Cc1ccc(-n2cc(NC(=O)c3coc(-c4ccncc4)n3)c(C(N)=O)n2)cc1 (stereo not shown) [I-370]

Further lines, the molecule ahead of its results:

Row | Compound | OCI-LY10 % IRAK4 Degradation | OCI-LY10 % IRAK4 Degradation (0.01 uM) | OCI-LY10 % IRAK4 Degradation (0.1 uM) | OCI-LY10 % IRAK4 Degradation (1 uM)
6 | N#Cc1cnc2c(cnn2-c2cc(NC3CC3)c(C(=O)NCC(F)COCCOCCNc3cccc4c3C(=O)N(C3CCC(=O)NC3=O)C4=O)cn2)c1 (stereo not shown) [I-76] | C (<20% degradation) | – | – | –
7 | O=C1CCC(N2C(=O)c3cccc(CCCN4CCC(n5cc(NC(=O)c6coc(-c7ccnc(NCC8CC8)c7)n6)c(C(F)F)n5)CC4)c3C2=O)C(=O)N1 (stereo not shown) [I-259] | – | C (<20% degradation) | C (<20% degradation) | C (<20% degradation)
8 | CC[C@@H]1[C@H](F)C(=O)N[C@@H]1COc1ncc(C#Cc2ccc(OCCOCCOCCOCCNc3cccc4c3C(=O)N(C3CCC(=O)NC3=O)C4=O)cc2)c2cc(C(N)=O)c(OC)cc12 (stereo partly drawn) [I-425, 4-[2-[4-[2-[2-[2-[2-[[2-(2,6-Dioxo-3-piperidyl)-1,3-dioxo-isoindolin-4-yl]amino]ethoxy]ethoxy]ethoxy]ethoxy]phenyl]ethynyl]-1-[[(2S,3S,4S)-3-ethyl-4-fluoro-5-oxo-pyrrolidin-2-yl]methoxy]-7-methoxy-isoquinoline-6-carboxamide] | – | B (>20-50% degradation) | A (>50% degradation) | A (>50% degradation)
9 | CC(C)(OCCOCCOCCNc1cccc2c1C(=O)N(C1CCC(=O)NC1=O)C2=O)C(F)CNC(=O)c1cnc(Nc2ncc(C#N)cc2F)cc1NC1CC1 (stereo not shown) [I-67] | C (<20% degradation) | – | – | –
10 | CC(C)(OCCNCCOCCNc1cccc2c1C(=O)N(C1CCC(=O)NC1=O)C2=O)C(F)CNC(=O)c1cnc(-n2ncc3cc(C#N)cnc32)cc1NC1CC1 (stereo not shown) [I-129] | C (<20% degradation) | – | – | –
11 | CC(C)(OCCNc1cccc2c1C(=O)N(C1CCC(=O)NC1=O)C2=O)C(F)CNC(=O)c1cnc(Nc2ccc3cnccc3n2)cc1NC1CC1 (stereo not shown) [I-74] | C (<20% degradation) | – | – | –
